Molecules are shown by their SMILES. Positions of bridges follow the written chain, without caps; N, C: chain ends. Non-standard residues stand in square brackets, D forms with d. Residues, ends and D or L forms follow the SMILES beside them. *: point of attachment. Bta = N[C@@H](Cc1csc2ccccc12)C(=O)O; Hyp = O=C(O)[C@@H]1C[C@@H](O)CN1; NMeNle = CCCC[C@H](NC)C(=O)O; NMeS = CN[C@@H](CO)C(=O)O; NMeA = CN[C@@H](C)C(=O)O; Dab = NCC[C@H](N)C(=O)O; Dap = NC[C@H](N)C(=O)O; Bn = c1ccc(C*)cc1; Sar = CNCC(=O)O

Experimental findings from patent publication US9850283B2, “Macrocyclic inhibitors of the PD-1/PD-L1 and CD80(B7-1)/PD-L1 protein/protein interactions” (BRISTOL-MYERS SQUIBB COMPANY, priority 2013, dated 2017) are described below.

One assay concerns the target T1, Human PD-L1/PD-1 (Homo sapiens, UniProt Q9NZQ7).
T1 construct: made in house; host or cells: HEK293T
Nature of the assay: HTRF PD-1-Ig/PD-L1-His binding assay (human PD-L1). The conditions noted are these: cluster symbol; read-out: HTRF IC50 cluster. Summed up:
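HTRF read-out: Eu cryptate anti-Ig mAb 1 nM final, APC anti-His mAb 20 nM final, added over the binding reaction. Proteins were PD-1-Ig and PD-L1-His ectodomain fusions. Buffer was dPBS, 0.1% BSA, 0.05% Tween-20.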

The target of assay [1] is T2, LK35.2-hPD-L1 cells / PE-labeled PD-1-Ig (Homo sapiens, UniProt Q9NZQ7).
T2 construct: expressed in transfected cells; host or cells: LK35.2 mouse B cell line
T2 sequence (Q9NZQ7 19-290): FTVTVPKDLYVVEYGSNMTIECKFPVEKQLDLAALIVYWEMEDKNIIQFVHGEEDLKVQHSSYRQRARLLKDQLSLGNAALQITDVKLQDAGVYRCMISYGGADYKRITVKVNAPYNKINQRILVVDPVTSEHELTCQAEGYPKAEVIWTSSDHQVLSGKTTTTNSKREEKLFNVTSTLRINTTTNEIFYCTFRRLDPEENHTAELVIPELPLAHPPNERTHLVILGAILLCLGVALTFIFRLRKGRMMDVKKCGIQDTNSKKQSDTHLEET
Kind of assay: LK35.2-hPD-L1 cell binding high-content screening assay. In kind it is cell-based. The conditions noted are these: cell binding assay, cell line not given; cluster symbol; read-out: CBA IC50 cluster. Summed up: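 Compound effect on PD-1/PD-L1 binding is measured by imaging cell-associated phycoerythrin signal. Human PD-1-Ig (PE on Ig tag, 1 nM final) is applied with compound to a murine B cell line overexpressing human PD-L1 for 1 h at 37 °C in serum-containing RPMI.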

T1 sequence (Q9NZQ7 with tags, fused parts or gaps): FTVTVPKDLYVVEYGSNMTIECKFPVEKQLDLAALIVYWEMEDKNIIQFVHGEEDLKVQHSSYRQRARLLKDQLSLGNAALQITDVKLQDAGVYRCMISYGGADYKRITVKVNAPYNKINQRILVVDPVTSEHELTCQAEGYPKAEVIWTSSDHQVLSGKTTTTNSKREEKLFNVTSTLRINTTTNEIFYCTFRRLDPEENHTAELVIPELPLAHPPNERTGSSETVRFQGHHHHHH

Broadly, the IC50 is the concentration at which inhibition is half-maximal. As for `CC(C)C[C@@H]1NC(=O)[C@H](Cc2cnc[nH]2)NC(=O)[C@@H]2CCCN2C(=O)[C@H](CC(N)=O)NC(=O)[C@H](C)N(C)C(=O)[C@H](Cc2ccccc2)NC(=O)CSC[C@@H](C(=O)NCC(N)=O)NC(=O)[C@H](CCCNC(=N)N)NC(=O)[C@H](COCc2ccccc2)N(C)C(=O)[C@H](C)N(C)C(=O)[C@H](Cc2c[nH]c3ccccc23)NC(=O)[C@H](CO)NC(=O)[C@H](Cc2c[nH]c3ccccc23)NC(=O)CN(C)C1=O` [Example 6015] ({CH2CO}-F[NMeA]NPHL[Sar]WSW[NMeA][NMeS](Bn)RCG-NH2; thioether N-14), the IC50 on Human PD-L1/PD-1 was above 30.5 nM; in assay [1], 4.78 to 72.9 nM.

For `CCCC[C@H]1C(=O)N(C)[C@@H](COCc2ccccc2)C(=O)N[C@@H](CCCNC(=N)N)C(=O)N[C@H](C(=O)NCC(N)=O)CSCC(=O)N[C@@H](Cc2ccccc2)C(=O)N(C)[C@@H](C)C(=O)N[C@@H](CC(N)=O)C(=O)N2CCC[C@H]2C(=O)N[C@@H](Cc2cnc[nH]2)C(=O)N[C@@H](CC(C)C)C(=O)N(C)CC(=O)N[C@@H](Cc2c[nH]c3ccccc23)C(=O)N[C@@H](CO)C(=O)N[C@@H](Cc2c[nH]c3ccccc23)C(=O)N1C` [Example 6016] ({CH2CO}-F[NMeA]NPHL[Sar]WSW[NMeNle][NMeS](Bn)RCG-NH2; thioether N-14), the results for the IC50 (at Human PD-L1/PD-1; in assay [1]) were 6.76 to 30.3 nM and 4.78 to 72.9 nM, respectively.

In the case of `CCCC[C@H]1C(=O)N(C)[C@@H](CCCC)C(=O)N[C@@H](CCCNC(=N)N)C(=O)N[C@H](C(=O)NCC(=O)NCC(N)=O)CSCC(=O)N[C@@H](Cc2ccc(O)cc2)C(=O)N(C)[C@@H](C)C(=O)N[C@@H](CC(N)=O)C(=O)N2CCC[C@H]2C(=O)N[C@@H](Cc2cnc[nH]2)C(=O)N[C@@H](CC(C)C)C(=O)N2C[C@H](O)C[C@H]2C(=O)N[C@@H](Cc2c[nH]c3ccccc23)C(=O)N[C@@H](CO)C(=O)N[C@@H](Cc2c[nH]c3ccccc23)C(=O)N1C` [Example 6017] ({CH2CO}-Y[NMeA]NPHL[Hyp]WSW[NMeNle][NMeNle]RCGG-NH2; thioether N-14), the IC50 at Human PD-L1/PD-1 was in the range of 0.385 to 6.74 nM; in assay [1] it was 0.158 to 4.71 nM.

Regarding `CCCC[C@H]1C(=O)N(C)[C@@H](CCCC)C(=O)N[C@@H](CCCNC(=N)N)C(=O)N[C@H](C(=O)NCC(=O)NCC(N)=O)CSCC(=O)N[C@@H](Cc2ccc(O)cc2)C(=O)N(C)[C@@H](C)C(=O)N[C@@H](CC(N)=O)C(=O)N2CCC[C@H]2C(=O)N[C@@H](Cc2cnc[nH]2)C(=O)N[C@@H](CC(C)C)C(=O)N2CCC[C@H]2C(=O)N[C@@H](Cc2c[nH]c3ccccc23)C(=O)N[C@@H](CO)C(=O)N[C@@H](Cc2c[nH]c3ccccc23)C(=O)N1C` [Example 6018] ({CH2CO}-Y[NMeA]NPHLPWSW[NMeNle][NMeNle]RCGG-NH2; thioether N-14), the IC50 at Human PD-L1/PD-1 was in the range of 0.385 to 6.74 nM; in assay [1], 0.158 to 4.71 nM.

As for `CCCC[C@H]1C(=O)N(C)[C@@H](CCCC)C(=O)N[C@@H](CCCNC(=N)N)C(=O)N[C@H](C(=O)NCC(=O)N[C@@H](C)C(N)=O)CSCC(=O)N[C@@H](Cc2ccc(O)cc2)C(=O)N(C)[C@@H](C)C(=O)N[C@@H](CC(N)=O)C(=O)N2CCC[C@H]2C(=O)N[C@@H](Cc2cnc[nH]2)C(=O)N[C@@H](CC(C)C)C(=O)N2C[C@H](O)C[C@H]2C(=O)N[C@@H](Cc2c[nH]c3ccccc23)C(=O)N[C@@H](CO)C(=O)N[C@@H](Cc2c[nH]c3ccccc23)C(=O)N1C` [Example 6019] ({CH2CO}-Y[NMeA]NPHL[Hyp]WSW[NMeNle][NMeNle]RCGA-NH2; thioether N-14), the results for the half-inhibitory concentration (IC50) (on Human PD-L1/PD-1; in assay [1]) were 0.385 to 6.74 nM and 0.158 to 4.71 nM, respectively.

With `CCCC[C@H]1C(=O)N(C)[C@@H](CCCC)C(=O)N[C@@H](CCCNC(=N)N)C(=O)N[C@H](C(=O)NCC(=O)NCC(=O)NCC(N)=O)CSCC(=O)N[C@@H](Cc2ccc(O)cc2)C(=O)N(C)[C@@H](C)C(=O)N[C@@H](CC(N)=O)C(=O)N2CCC[C@H]2C(=O)N[C@@H](Cc2cnc[nH]2)C(=O)N[C@@H](CC(C)C)C(=O)N2CCC[C@H]2C(=O)N[C@@H](Cc2c[nH]c3ccccc23)C(=O)N[C@@H](CO)C(=O)N[C@@H](Cc2c[nH]c3ccccc23)C(=O)N1C` [Example 6020] ({CH2CO}-Y[NMeA]NPHLPWSW[NMeNle][NMeNle]RCGGG-NH2; thioether N-14), the IC50 on Human PD-L1/PD-1 was 0.385 to 6.74 nM; in assay [1], 0.158 to 4.71 nM.

For the compound `CCCC[C@H]1C(=O)N(C)[C@@H](CCCC)C(=O)N[C@@H](CCCNC(=N)N)C(=O)N[C@H](C(=O)NCC(N)=O)CSCC(=O)N[C@@H](Cc2ccc(O)cc2)C(=O)N(C)[C@@H](C)C(=O)N[C@@H](CC(N)=O)C(=O)N2CCC[C@H]2C(=O)N[C@@H](CN)C(=O)N[C@@H](CCC(N)=O)C(=O)N2CCC[C@H]2C(=O)N[C@@H](Cc2c[nH]c3ccccc23)C(=O)N[C@@H](CO)C(=O)N[C@@H](Cc2c[nH]c3ccccc23)C(=O)N1C` [Example 6021] ({CH2CO}-Y[NMeA]NP[Dap]QPWSW[NMeNle][NMeNle]RCG-NH2; thioether N-14), the IC50 on Human PD-L1/PD-1 was 0.385 to 6.74 nM; in assay [1], 0.158 to 4.71 nM.

As to `CCCC[C@H]1C(=O)N(C)[C@@H](CCCC)C(=O)N[C@@H](CCCNC(=N)N)C(=O)N[C@H](C(=O)NCC(N)=O)CSCC(=O)N[C@@H](Cc2ccc(O)cc2)C(=O)N(C)[C@@H](C)C(=O)N[C@@H](CC(N)=O)C(=O)N2CCC[C@H]2C(=O)N[C@@H](Cc2cnc[nH]2)C(=O)N[C@@H](CC(C)C)C(=O)N2C[C@H](C#N)C[C@H]2C(=O)N[C@@H](Cc2c[nH]c3ccccc23)C(=O)N[C@@H](CO)C(=O)N[C@@H](Cc2c[nH]c3ccccc23)C(=O)N1C` [Example 6022], the half-inhibitory concentration (IC50) at Human PD-L1/PD-1 is 0.385 to 6.74 nM; in assay [1] it was 0.158 to 4.71 nM.

`CCCC[C@H]1C(=O)N(C)[C@@H](CCCC)C(=O)N[C@@H](CCCNC(=N)N)C(=O)N[C@H](C(=O)NCC(N)=O)CSCC(=O)N[C@@H](Cc2ccc(O)cc2)C(=O)N(C)[C@@H](C)C(=O)N[C@@H](CC(N)=O)C(=O)N2CCC[C@H]2C(=O)N[C@@H](CN)C(=O)N[C@@H](CCC(N)=O)C(=O)N2C[C@H](O)C[C@H]2C(=O)N[C@@H](Cc2c[nH]c3ccccc23)C(=O)N[C@@H](CO)C(=O)N[C@@H](Cc2csc3ccccc23)C(=O)N1C` [Example 6023] ({CH2CO}-Y[NMeA]NP[Dap]Q[Hyp]WS[Bta][NMeNle][NMeNle]RCG-NH2; thioether N-14): the IC50 at Human PD-L1/PD-1 was in the range of 6.76 to 30.3 nM; in assay [1], 0.158 to 4.71 nM.

In the case of `CCCC[C@H]1C(=O)N(C)[C@@H](CCCC)C(=O)N[C@@H](C)C(=O)N[C@H](C(=O)NCC(N)=O)CSCC(=O)N[C@@H](Cc2ccc(O)cc2)C(=O)N(C)[C@@H](C)C(=O)N[C@@H](CC(=O)O)C(=O)N2CCC[C@H]2C(=O)N[C@@H](Cc2cnc[nH]2)C(=O)N[C@@H](CCC(N)=O)C(=O)N2CCC[C@H]2C(=O)N[C@@H](Cc2c[nH]c3ccccc23)C(=O)N[C@@H](CO)C(=O)N[C@@H](Cc2c[nH]c3ccccc23)C(=O)N1C` [Example 6024] ({CH2CO}-Y[NMeA]DPHQPWSW[NMeNle][NMeNle]ACG-NH2; thioether N-14), the concentration for half-maximal inhibition (IC50) on Human PD-L1/PD-1 lay in the range of 0.385 to 6.74 nM; in assay [1], 0.158 to 4.71 nM.

`CCCC[C@H]1C(=O)N(C)[C@@H](CCCC)C(=O)N[C@@H](CC(C)C)C(=O)N[C@H](C(=O)NCC(N)=O)CSCC(=O)N[C@@H](Cc2ccc(O)cc2)C(=O)N(C)[C@@H](C)C(=O)N[C@@H](CC(N)=O)C(=O)N2CCC[C@H]2C(=O)N[C@@H](Cc2cnc[nH]2)C(=O)N[C@@H](CC(C)C)C(=O)N2C[C@H](O)C[C@H]2C(=O)N[C@@H](Cc2c[nH]c3ccccc23)C(=O)N[C@@H](CO)C(=O)N[C@@H](Cc2c[nH]c3ccccc23)C(=O)N1C` [Example 6025]: the IC50 was 0.385 to 6.74 nM on Human PD-L1/PD-1 and 0.158 to 4.71 nM in assay [1].

Take `CCCC[C@H]1C(=O)N(C)[C@@H](CCCC)C(=O)N[C@@H](CC(C)C)C(=O)N[C@H](C(=O)NCC(N)=O)CSCC(=O)N[C@@H](Cc2ccc(O)cc2)C(=O)N(C)[C@@H](C)C(=O)N[C@@H](CC(=O)O)C(=O)N2CCC[C@H]2C(=O)N[C@@H](Cc2cnc[nH]2)C(=O)N[C@@H](CCC(=O)O)C(=O)N2C[C@H](O)C[C@H]2C(=O)N[C@@H](Cc2c[nH]c3ccccc23)C(=O)N[C@@H](CO)C(=O)N[C@@H](Cc2c[nH]c3ccccc23)C(=O)N1C` [Example 6026] ({CH2CO}-Y[NMeA]DPHE[Hyp]WSW[NMeNle][NMeNle]LCG-NH2; thioether N-14): the half-maximal inhibitory concentration (IC50) is 0.385 to 6.74 nM on Human PD-L1/PD-1 and 0.158 to 4.71 nM in assay [1].

In the case of `CCCC[C@H]1C(=O)N(C)[C@@H](CCCC)C(=O)N[C@@H](CC(C)C)C(=O)N[C@H](C(=O)NCC(N)=O)CSCC(=O)N[C@@H](Cc2ccc(O)cc2)C(=O)N(C)[C@@H](C)C(=O)N[C@@H](CC(=O)O)C(=O)N2CCC[C@H]2C(=O)N[C@@H](Cc2cnc[nH]2)C(=O)N[C@@H](CC(C)C)C(=O)N2C[C@H](O)C[C@H]2C(=O)N[C@@H](Cc2c[nH]c3ccccc23)C(=O)N[C@@H](CCN)C(=O)N[C@@H](Cc2c[nH]c3ccccc23)C(=O)N1C` [Example 6027] ({CH2CO}-Y[NMeA]DPHL[Hyp]W[Dab]W[NMeNle][NMeNle]LCG-NH2; thioether N-14), the half-inhibitory concentration (IC50) lay within 0.385 to 6.74 nM on Human PD-L1/PD-1 and 0.158 to 4.71 nM in assay [1].

As to `CCCC[C@H]1C(=O)N(C)[C@@H](CCCC)C(=O)N[C@@H](CCCNC(=N)N)C(=O)N[C@H](C(=O)NCC(N)=O)CSCC(=O)N[C@@H](Cc2ccc(O)cc2)C(=O)N(C)[C@@H](C)C(=O)N[C@@H](CC(N)=O)C(=O)N2CCC[C@H]2C(=O)N[C@@H](CN)C(=O)N[C@@H](CC(N)=O)C(=O)N2C[C@H](O)C[C@H]2C(=O)N[C@@H](Cc2c[nH]c3ccccc23)C(=O)N[C@@H](CO)C(=O)N[C@@H](Cc2csc3ccccc23)C(=O)N1C` [Example 6028] ({CH2CO}-Y[NMeA]NP[Dap]N[Hyp]WS[Bta][NMeNle][NMeNle]RCG-NH2; thioether N-14), the IC50 at Human PD-L1/PD-1 was in the range of 6.76 to 30.3 nM; in assay [1], 0.158 to 4.71 nM.
